Data taken from US20230276804A1, “A PESTICIDALLY ACTIVE MIXTURE COMPRISING PYRAZOLOPYRIDINE ANTHRANILAMIDE COMPOUND, OXIDES OR SALTS THEREOF” (priority 2020, published 2023).
“And” between values parts separate entries of the source, which are not always exact repeats. Equal values may be shown once.

What was measured:
Type in all cases: in vivo
Plutella xylostella = experiment: Leaf dip method (cabbage leaves) with Bacillus thuringiensis against Plutella xylostella (Example F); settings: single, 0.1 ppm, 72 h
Experimental: (§1) The leaf dip method was used, wherein the required quantity of the compounds were weighed and dissolved in a test solution prepared in tubes. The tubes were put on a vortex at 2000 rpm for 90 min for proper mixing and then, for the single compounds, diluted with a 0.01% Triton-X solution, for the combinations, diluted with a 0.01% Triton-X solution containing formulated Bt, to get the desired test concentration. Cabbage leaves were dipped in the solution for 10 seconds, shade dried for 20 min and then transferred to single cells of bioassay trays. A single second instar larva was released into each cell and the tray was covered with a lid. The bio-assay trays were kept under laboratory conditions at a temperature of 25° C. and relative humidity of 70%. Observations on dead, moribund and live larvae were recorded 72 h after the release. Percent mortality was calculated by combining dead and moribund larvae and comparing the results to the one of the untreated control. The results have been described for compound of formula (I-III) in Table F.

Pyricularia oryzae = settings: single compound, 100 ppm, preventive, rice
Erysiphe cichoracearum = experiment: Preventive glasshouse test against Erysiphe cichoracearum in cucumber (Example K); settings: single compound
Experimental: The single compounds or the respective compound combinations were dissolved in 2% dimethyl sulfoxide/acetone and then mixed with water containing emulsifier to a calibrated spray volume of 50 mL. The test solutions were poured into spray bottles for further applications.
(§2) To test the preventive activity of compounds, healthy young cucumber plants, raised in the greenhouse, were sprayed with the active compound preparation at the stated application rates inside the spray cabinets using hollow cone nozzles. One day after treatment, the plants were inoculated with a conidial suspension containing 2×10^5 Erysiphe cichoracearum inoculum. The inoculated plants were then kept in a greenhouse chamber at a temperature of 22-24° C. and 50-60% relative humidity for disease expression.
A visual assessment of the performance of the compounds and the respective compound combinations was carried out by rating the disease severity (0-100% scale) on treated plants 3, 7, 10 and 15 days after application. Efficacy (% control) of the single compounds or compound combinations was calculated by comparing the disease rating in the treatment with the one of the untreated control. The compounds were also assessed for their plant compatibility by recording symptoms like necrosis, chlorosis and stunting. The results have been described for the compound of formula (I-III) in Table K.

Alternaria solani = experiment: Preventive glasshouse test against Alternaria solani in tomato (Example G); settings: single compound
Experimental: The single compounds or respective compound combinations were dissolved in 2% dimethyl sulfoxide/acetone and then mixed with water containing emulsifier to a calibrated spray volume of 50 mL. The test solutions were poured into spray bottles for further applications.
as §2, with “activity,” for “activity of compounds,”, “tomato” for “cucumber”, “spore” for “conidial”, “0.24×10^6 Alternaria solani inoculum and 2% Malt.” for “2×10^5 Erysiphe cichoracearum inoculum.”, “90-95%” for “50-60%”
A visual assessment of the performance of the single compounds or compound combinations was carried out by rating the disease severity (0-100% scale) on treated plants 3, 7, 10 and 15 days after application. Efficacy (% control) of the single compounds and mixtures was calculated by comparing the disease rating in the treatment with the one of the untreated control. The compounds were also assessed for their plant compatibility by recording symptoms like necrosis, chlorosis and stunting. The results have been described for the compound of formula (I-III) in Table G.

Spodoptera litura [1] = experiment: Leaf dip method (tomato leaves) with Bacillus thuringiensis against Spodoptera litura (Example E); settings: single, 0.1 ppm, 72 h
Experimental: as §1, with “test concentration. Tomato leaves were” for “test concentration. Cabbage leaves were”, “cells of the bioassay trays.” for “cells of bioassay trays.”, “A single third instar larva” for “A single second instar larva”, “were recorded at 72 h” for “were recorded 72 h”, “in Table E.” for “in Table F.”

Helicoverpa armigera = experiment: Diet incorporation method against Helicoverpa armigera (Example A); settings: single compound, 0.2 ppm, 96 h
Experimental: The diet incorporation method was used, in which semi-synthetic diet was incorporated into the test solutions consisting either of the single compounds or respective compound combinations, when the temperature was approximately 50° C. in the bio-assay containers, then stirred thoroughly for proper mixing and allowed to cool for 30 min. The solidified diet was cut into equal pieces, and then each piece was transferred into one cell of a bio-assay tray. A single starved third instar larva was released into each of these cells of the bio-assay trays and the tray was covered with a lid. The bio-assay trays were kept under laboratory conditions at a temperature of 25° C. and relative humidity of 70%. Observations on dead, moribund and live larvae were recorded 96 h after the release of the larvae. Percent mortality was calculated by combining dead and moribund larvae and comparing the result to the one of the untreated control. The results are shown for the compound of formula (I-III) in Table A.

Spodoptera litura [2] = experiment: Diet incorporation method against Spodoptera litura (Example B); settings: single compound, 1 ppm, 96 h
Experimental: The diet incorporation method was used, in which semi-synthetic diet was incorporated into the test solution consisting either of the single compound or respective compound combinations, when the temperature was approximately 50° C. in the bioassay containers, then stirred thoroughly for proper mixing and allowed to cool for 30 min. The solidified diet was cut into equal pieces, and then each piece was transferred into one cell of the bio-assay trays. A single starved third instar larva was released into each of these cells of the bio-assay trays and the tray was covered with a lid. The bio-assay trays were kept under laboratory conditions at a temperature of 25° C. and relative humidity of 70%. Observations on dead, moribund and live larvae were recorded 96 h after the release. Percent mortality was calculated by combining dead and moribund larvae and comparing the result with the one of the untreated control. The results are shown for the compound of formula (I-III) in Table B.

“6-(3-bromo-1-(3-chloropyridin-2-yl)-1H-pyrazole-5-carboxamido)-N-isopropyl-5-methylpyrazolo[1,5-a]pyridine-7-carboxamide [Compound (I-III)]” was tested, and the “Observed Efficacy (%)” value (Plutella xylostella) was 12.5%, the “Observed Efficacy (%)” value (Pyricularia oryzae) was 15% and the “Observed Efficacy (%)” value (Erysiphe cichoracearum; Conc. 100 ppm) was 17%. The “Observed Efficacy (%)” value (Erysiphe cichoracearum; Conc. 500 ppm) was 17% and 19% and 28%, the “Observed Efficacy (%)” value (Alternaria solani; 100 ppm) was 30% and the “Observed Efficacy (%)” value (Alternaria solani; 500 ppm) was 32%. The “Observed Efficacy (%)” value (Spodoptera litura [1]) was 0%, the “Observed Efficacy (%)” value (Helicoverpa armigera) was 12.5% and the “Observed Efficacy (%)” value (Spodoptera litura [2]) was 12.5% and 25%.
